Data published in article PMC10082216 (Nature Communications, 2023).
Read-outs that look alike come from different tables or passages of the source.

Assays:
[1] = read-out: Cmax in humans; at the lowest dose; ref not given; cited from earlier work
female gametocytes = test: 384-well microsphiltration readout 2 (anti-pfs25): retention of female gametocytes; format: cell-based; details: Plasmodium falciparum, read-out: IC50 during the screening campaign, only females stained
Procedure: Large scale microsphiltration was performed as previously described. Briefly, microsphiltration plates were prepared using a Biomek NX workstation (Beckman, cat. no. 989402) to load 15 μl of 25–45μm microspheres then 10 μl of a mixture of 30% 5–15μm and 70% (w/w) 15–25μm microspheres. The 384-well filter plates were then stored at -20 °C until use. In some of the 384-well microsphiltration plates leakage of microspheres occurred in one or more wells. The wells with leakages were sealed. Plates displaying more than 5 sealed wells were not used. Imaging plates were prepared by loading 30 μL of staining solution in each well of a collagen-coated plate. A different staining solution was used for each readout (1 and 2). Readout 1 counted both male and female gametocytes, using nucleic acid (Syto40, Thermo Fisher cat. no. S11351) and viability (MitoTracker Deep Red, Thermo Fisher cat. no. M22426) staining, and total RBCs using a cell membrane stain (CellMask Orange, Thermo Fisher cat. no. C10045). Readout 2 selectively quantified the retention and killing of female gametocytes. […] Imaging plates were incubated overnight at room temperature, then read in an OperaPhenix high-content confocal imaging system (Perkin Elmer, Waltham, MA, USA) and analyzed with Harmony high-content analysis software v. […]

[2] = test system: F32-TEM P. falciparum strain; test: Resistance selection by TD-6450 drug pulses, dose-response on F32-TEM; format: cell-based, Plasmodium falciparum; details: for Parental strain 1 (viability) / Parental strain 2 (viability) / Parental strain 3 (viability): No drug pulses; for IC50: Plasmodium falciparum
Procedure: To assess the ability of P. falciparum to develop resistance against TD-6450, we exposed F32-TEM line parasites, a reference artemisinin-sensitive P. falciparum strain[45], to the drug at 3 µM concentration for three days. We confirmed the absence of parasites on Giemsa-stained smears following exposure, then checked daily for parasite re-appearance in a drug-free culture flask.

In the case of `C[C@H]1Cc2c([nH]c3cc(Cl)c(F)cc23)[C@@]2(N1)C(=O)Nc1ccc(Cl)cc12` [NITD609, cipargamin], the Cmax [1] is listed as 0.63 µM.

For `CNC(=O)N1C[C@@H](C)N(c2ccc(C(=O)Nc3ccc(-c4ccc(-c5c[nH]c([C@@H]6CCCN6C(=O)[C@@H](NC(=O)OC)C(C)C)n5)cc4)c(OC(F)(F)F)c3)cn2)C[C@@H]1C` [TD-6450], the IC50 (female gametocytes) was 2.03 ± 0.35 µM, the “Parental strain 1 (viability)” value ([2]; 5 µM) was 1.88 and the “Parental strain 2 (viability)” value ([2]; 5 µM) was 1.225. For the same compound, the “Parental strain 3 (viability)” value ([2]; 5 µM) was 1.766, the “Parental strain 1 (viability)” value ([2]; 10 µM) was 1.472 and the “Parental strain 2 (viability)” value ([2]; 10 µM) was 0.6944. For the same compound, the “Parental strain 3 (viability)” value ([2]; 10 µM) was 1.083, the “Parental strain 1 (viability)” value ([2]; 20 µM) was 1.826 and the “Parental strain 2 (viability)” value ([2]; 20 µM) was 0.509. The “Parental strain 3 (viability)” value ([2]; 20 µM) was 0.9281, the IC50 ([2]; F32, read-out: IC50, F32-TEM 5 pulses) was 0.7 µM and the IC50 ([2]; F32, read-out: IC50, F32-TEM 10 pulses) was 0.3 µM. The IC50 ([2]; F32, read-out: IC50, F32-TEM P.S.) was 0.2 µM, the “fold shift in IC50” value ([2]; after five drug-killing pulses (3 µM, three days)) was 3.5 fold and the “fold shift in IC50” value ([2]; after ten drug-killing pulses (3 µM, three days)) was 1.5 fold.
